Measurements published in patent US9371320B2, “Heterocyclic compound” (TAKEDA PHARMACEUTICAL COMPANY LIMITED, priority 2012, dated 2016).

Legend:
[1] = molecular target: T1, JAK1 (Homo sapiens, UniProt P23458); experiment: JAK1 enzyme inhibition test (LANCE method); format: biochemical; settings: for inhibition at 1 µM: read-out: Inhibitory rate (%) JAK1 1 μM
T1 construct: purchased Invitrogen
Procedure, shortened: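 Reactions ran 1 h at room temperature in HEPES pH 7.5/MgCl2 buffer, with ATP solution at 150 μM and JAK1 and ULight peptide solutions at 187.5 ng/mL and 300 nM. Reactions were stopped with EDTA, and phosphorylation was read by Eu antibody time-resolved fluorescence at 665 nm. Inhibition was scaled to a no-enzyme control as 100%.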

[2] = molecular target: T2, Tyk2 (Homo sapiens, UniProt P29597); experiment: Tyk2 enzyme inhibition test (LANCE method); format: biochemical; settings: for inhibition at 1 µM: read-out: Inhibitory rate (%) Tyk2 1 μM
T2 construct: purchased Invitrogen
Procedure, shortened: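 LANCE TR-FRET read-out (ex 340/em 665 nm, 100 μs delay) of ULight-JAK1 phosphorylation, with no-enzyme wells as 100% inhibition. Reaction run 1 h at room temperature in pH 7.5 HEPES buffer; enzyme 375 ng/mL, substrate 300 nM and ATP 30 μM are solution concentrations before mixing.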

T1 sequence (P23458 whole entry): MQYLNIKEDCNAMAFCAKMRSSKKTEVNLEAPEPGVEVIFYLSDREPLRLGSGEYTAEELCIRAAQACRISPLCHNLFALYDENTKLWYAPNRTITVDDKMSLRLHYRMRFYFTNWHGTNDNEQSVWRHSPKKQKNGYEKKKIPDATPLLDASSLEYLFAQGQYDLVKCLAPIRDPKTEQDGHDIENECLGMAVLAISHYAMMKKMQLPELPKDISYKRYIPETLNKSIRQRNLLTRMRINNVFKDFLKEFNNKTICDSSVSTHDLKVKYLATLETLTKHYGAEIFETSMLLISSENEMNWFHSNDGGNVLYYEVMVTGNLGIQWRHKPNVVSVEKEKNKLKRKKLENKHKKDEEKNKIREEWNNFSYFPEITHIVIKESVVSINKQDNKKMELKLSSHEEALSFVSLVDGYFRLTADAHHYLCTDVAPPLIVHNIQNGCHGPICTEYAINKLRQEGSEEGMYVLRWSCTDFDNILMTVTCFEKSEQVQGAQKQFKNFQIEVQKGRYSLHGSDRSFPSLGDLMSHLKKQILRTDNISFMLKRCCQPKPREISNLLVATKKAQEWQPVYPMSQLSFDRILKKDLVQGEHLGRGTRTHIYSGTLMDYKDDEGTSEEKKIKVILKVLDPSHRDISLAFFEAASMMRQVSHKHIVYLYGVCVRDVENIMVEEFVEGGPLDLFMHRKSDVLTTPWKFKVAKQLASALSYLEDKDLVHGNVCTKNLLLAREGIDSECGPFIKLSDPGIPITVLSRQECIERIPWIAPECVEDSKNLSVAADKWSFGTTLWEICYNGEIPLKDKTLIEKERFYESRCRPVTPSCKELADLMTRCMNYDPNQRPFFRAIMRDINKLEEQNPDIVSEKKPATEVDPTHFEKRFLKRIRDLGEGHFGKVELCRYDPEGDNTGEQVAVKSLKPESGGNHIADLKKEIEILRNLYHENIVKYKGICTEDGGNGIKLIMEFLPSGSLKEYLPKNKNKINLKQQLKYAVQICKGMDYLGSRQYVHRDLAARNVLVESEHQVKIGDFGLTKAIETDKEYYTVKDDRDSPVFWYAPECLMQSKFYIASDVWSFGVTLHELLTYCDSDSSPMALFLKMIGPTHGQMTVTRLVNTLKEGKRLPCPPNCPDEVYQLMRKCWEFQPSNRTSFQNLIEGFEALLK
T2 sequence (P29597 whole entry): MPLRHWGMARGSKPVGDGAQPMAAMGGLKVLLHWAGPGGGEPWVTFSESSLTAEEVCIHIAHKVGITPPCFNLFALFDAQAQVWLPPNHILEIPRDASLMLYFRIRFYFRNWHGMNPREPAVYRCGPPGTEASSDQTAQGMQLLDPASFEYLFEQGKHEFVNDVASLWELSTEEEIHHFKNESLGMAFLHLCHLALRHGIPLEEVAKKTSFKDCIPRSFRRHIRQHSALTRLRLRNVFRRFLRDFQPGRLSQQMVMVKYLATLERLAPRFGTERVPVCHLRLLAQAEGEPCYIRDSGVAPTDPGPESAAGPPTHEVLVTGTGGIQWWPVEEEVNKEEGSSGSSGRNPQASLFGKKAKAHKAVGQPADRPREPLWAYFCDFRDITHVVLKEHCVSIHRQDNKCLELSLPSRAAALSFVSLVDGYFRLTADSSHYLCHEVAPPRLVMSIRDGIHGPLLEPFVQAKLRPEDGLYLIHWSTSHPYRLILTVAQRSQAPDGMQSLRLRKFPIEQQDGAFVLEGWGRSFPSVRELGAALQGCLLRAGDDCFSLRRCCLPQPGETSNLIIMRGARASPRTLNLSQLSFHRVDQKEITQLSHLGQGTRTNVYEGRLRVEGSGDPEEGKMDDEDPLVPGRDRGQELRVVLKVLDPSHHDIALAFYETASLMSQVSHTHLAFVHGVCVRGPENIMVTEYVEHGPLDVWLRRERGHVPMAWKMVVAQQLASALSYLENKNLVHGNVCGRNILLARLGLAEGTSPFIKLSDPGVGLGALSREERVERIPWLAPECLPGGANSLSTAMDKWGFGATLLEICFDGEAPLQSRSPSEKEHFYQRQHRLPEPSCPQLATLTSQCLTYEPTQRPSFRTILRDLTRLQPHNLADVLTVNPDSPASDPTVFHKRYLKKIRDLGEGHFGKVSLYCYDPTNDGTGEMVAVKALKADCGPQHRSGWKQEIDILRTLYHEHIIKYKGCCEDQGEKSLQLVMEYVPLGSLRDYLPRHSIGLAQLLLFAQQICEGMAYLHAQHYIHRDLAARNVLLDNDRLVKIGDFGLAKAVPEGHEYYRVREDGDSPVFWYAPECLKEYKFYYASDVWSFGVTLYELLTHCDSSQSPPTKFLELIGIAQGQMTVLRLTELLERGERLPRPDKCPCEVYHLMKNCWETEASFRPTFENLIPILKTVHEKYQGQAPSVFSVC

| Structure (SMILES) | inhibition at 1 µM ([1]; test compound 1 μM) [%] | inhibition at 1 µM ([2]; test compound 1 μM) [%] | further results |
| --- | --- | --- | --- |
| CC(C)(C)n1nc(-c2ccc(S(N)(=O)=O)cc2)c2c(=O)[nH]ccc21 [Example 86, 4-(1-tert-butyl-4-oxo-4,5-dihydro-1H-pyrazolo[4,3-c]pyridin-3-yl)benzenesulfonamide] | 94 | 85 |  |
| NS(=O)(=O)c1ccc(-c2nn(C3CCCOC3)c3cc[nH]c(=O)c23)cc1 (stereo not drawn) [Example 87, 4-(4-oxo-1-(tetrahydro-2H-pyran-3-yl)-4,5-dihydro-1H-pyrazolo[4,3-c]pyridin-3-yl)benzenesulfonamide] | 99 | 96 |  |
| NS(=O)(=O)c1ccc(-c2nn(C3CCCOC3)c3cc[nH]c(=O)c23)cc1 (stereo not drawn) [Example 88, 4-(4-oxo-1-(tetrahydro-2H-pyran-3-yl)-4,5-dihydro-1H-pyrazolo[4,3-c]pyridin-3-yl)benzenesulfonamide] |  |  | Inhibitory rate (%) JAK1 1 μM ([1]; test compound 1 μM): 96%; Inhibitory rate (%) Tyk2 1 μM ([2]; test compound 1 μM): 91% |
| CC1(C)OCC(Cn2cc(-c3ccc(S(N)(=O)=O)cc3)c3c(=O)[nH]ccc32)O1 (stereo not drawn) [Example 90, 4-(1-((2,2-dimethyl-1,3-dioxolan-4-yl)methyl)-4-oxo-4,5-dihydro-1H-pyrrolo[3,2-c]pyridin-3-yl)benzenesulfonamide] |  |  | inhibition at 10 µM ([1]; test compound 10 μM, read-out: Inhibitory rate (%) JAK1 10 μM): 38%; inhibition at 10 µM ([2]; test compound 10 μM, read-out: Inhibitory rate (%) Tyk2 10 μM): 22% |
| NS(=O)(=O)c1ccc(-c2cn(CC(O)CO)c3cc[nH]c(=O)c23)cc1 (stereo not drawn) [Example 91, 4-(1-(2,3-dihydroxypropyl)-4-oxo-4,5-dihydro-1H-pyrrolo[3,2-c]pyridin-3-yl)benzenesulfonamide] | 19 | 92 |  |
| NS(=O)(=O)c1ccc(-c2nn(C3CCCC3)c3cc[nH]c(=O)c23)cc1 [Example 92, 4-(1-cyclopentyl-4-oxo-4,5-dihydro-1H-pyrazolo[4,3-c]pyridin-3-yl)benzenesulfonamide] | 100 | 99 |  |
| N#CCc1cc(-c2cn(C3CCCC3)c3c(C#N)c[nH]c(=O)c23)cs1 [Example 93, 3-(5-(cyanomethyl)-3-thienyl)-1-cyclopentyl-4-oxo-4,5-dihydro-1H-pyrrolo[3,2-c]pyridine-7-carbonitrile] | 98 | 99 |  |
| COc1ccc(Cn2nc(-c3ccc(S(N)(=O)=O)cc3)c3c(=O)[nH]ccc32)cc1 [Example 94, 4-(1-(4-methoxybenzyl)-4-oxo-4,5-dihydro-1H-pyrazolo[4,3-c]pyridin-3-yl)benzenesulfonamide] | 80 | 78 |  |
| N#CCc1ccc(-c2cn(C3CCCC3)c3c(C#N)c[nH]c(=O)c23)cc1 [Example 96, 3-(4-(cyanomethyl)phenyl)-1-cyclopentyl-4-oxo-4,5-dihydro-1H-pyrrolo[3,2-c]pyridine-7-carbonitrile] | 94 | 99 |  |
| N#Cc1c[nH]c(=O)c2c(-c3cnn(CC(N)=O)c3)cn(C3CCCC3)c12 [Example 98, 2-(4-(7-cyano-1-cyclopentyl-4-oxo-4,5-dihydro-1H-pyrrolo[3,2-c]pyridin-3-yl)-1H-pyrazol-1-yl)acetamide] | 78 | 97 |  |
| N#CCn1cc(-c2cn(C3CCCC3)c3c(C#N)c[nH]c(=O)c23)cn1 [Example 99, 3-(1-(cyanomethyl)-1H-pyrazol-4-yl)-1-cyclopentyl-4-oxo-4,5-dihydro-1H-pyrrolo[3,2-c]pyridine-7-carbonitrile] | 97 | 99 |  |
| CC1(Cn2nc(-c3ccc(S(N)(=O)=O)cc3)c3c(=O)[nH]ccc32)COC1 [Example 100, 4-(1-((3-methyloxetan-3-yl)methyl)-4-oxo-4,5-dihydro-1H-pyrazolo[4,3-c]pyridin-3-yl)benzenesulfonamide] | 96 | 77 |  |
| NS(=O)(=O)c1ccc(-c2nn(C3CCCC3)c3c(Br)c[nH]c(=O)c23)cc1 [Example 101, 4-(7-bromo-1-cyclopentyl-4-oxo-4,5-dihydro-1H-pyrazolo[4,3-c]pyridin-3-yl)benzenesulfonamide] | 80 | 91 |  |
| NS(=O)(=O)c1ccc(-c2nn(CC3COC3)c3cc[nH]c(=O)c23)cc1 [Example 105, 4-(1-(oxetan-3-ylmethyl)-4-oxo-4,5-dihydro-1H-pyrazolo[4,3-c]pyridin-3-yl)benzenesulfonamide] | 88 | 66 |  |
| N#Cc1c[nH]c(=O)c2c(-c3ccsc3)cn(C3CCCC3)c12 [Example 106, 1-cyclopentyl-4-oxo-3-(3-thienyl)-4,5-dihydro-1H-pyrrolo[3,2-c]pyridine-7-carbonitrile] | 91 | 98 |  |
| N#Cc1c[nH]c(=O)c2c(-c3cn[nH]c3)cn(C3CCCC3)c12 [Example 111, 1-cyclopentyl-4-oxo-3-(1H-pyrazol-4-yl)-4,5-dihydro-1H-pyrrolo[3,2-c]pyridine-7-carbonitrile] | 96 | 99 |  |
| NS(=O)(=O)c1ccc(-c2nn(CC3CCOC3)c3cc[nH]c(=O)c23)cc1 (stereo not drawn) [Example 115, 4-(4-oxo-1-(tetrahydrofuran-3-ylmethyl)-4,5-dihydro-1H-pyrazolo[4,3-c]pyridin-3-yl)benzenesulfonamide] | 87 | 66 |  |

Now from value to compound, other results behind:

| inhibition at 1 µM ([1]; test compound 1 μM) [%] | inhibition at 1 µM ([2]; test compound 1 μM) [%] | Structure (SMILES) | further results |
| --- | --- | --- | --- |
| 64 | 94 | N#Cc1c[nH]c(=O)c2c(-c3cccc(C(N)=O)c3)cn(C3CCCC3)c12 [Example 89, 3-(7-cyano-1-cyclopentyl-4-oxo-4,5-dihydro-1H-pyrrolo[3,2-c]pyridin-3-yl)benzamide] |  |
| 86 | 98 | N#Cc1c[nH]c(=O)c2c(-c3ccc(CC(N)=O)cc3)cn(C3CCCC3)c12 [Example 95, 2-(4-(7-cyano-1-cyclopentyl-4-oxo-4,5-dihydro-1H-pyrrolo[3,2-c]pyridin-3-yl)phenyl)acetamide] |  |
| 97 | 99 | N#Cc1c[nH]c(=O)c2c(-c3csc(CC(N)=O)c3)cn(C3CCCC3)c12 [Example 97, 2-(4-(7-cyano-1-cyclopentyl-4-oxo-4,5-dihydro-1H-pyrrolo[3,2-c]pyridin-3-yl)-2-thienyl)acetamide] |  |
| 67 | 94 | Cc1ccccc1-c1cn(-c2csc(C(N)=O)c2)c2c(=O)[nH]cc(C#N)c12 [Example 102, 4-(4-cyano-3-(2-methylphenyl)-7-oxo-6,7-dihydro-1H-pyrrolo[2,3-c]pyridin-1-yl)thiophene-2-carboxamide] |  |
| 48 | 91 | N#Cc1c[nH]c(=O)c2c(-c3ccccc3)cn(C3CCCC3)c12 [Example 103, 1-cyclopentyl-4-oxo-3-phenyl-4,5-dihydro-1H-pyrrolo[3,2-c]pyridine-7-carbonitrile] |  |
| 94 | 99 | N#CCc1ccc(-c2nn(-c3c(F)cccc3F)c3c(Br)c[nH]c(=O)c23)cc1 [Example 104, (4-(7-bromo-1-(2,6-difluorophenyl)-4-oxo-4,5-dihydro-1H-pyrazolo[4,3-c]pyridin-3-yl)phenyl)acetonitrile] |  |
| 96 | 98 | CN(C)C(=O)c1cc(-c2cn(C3CCCC3)c3c(C#N)c[nH]c(=O)c23)cs1 [Example 107, 4-(7-cyano-1-cyclopentyl-4-oxo-4,5-dihydro-1H-pyrrolo[3,2-c]pyridin-3-yl)-N,N-dimethylthiophene-2-carboxamide] |  |
| 99 | 100 | CNC(=O)c1cc(-c2cn(C3CCCC3)c3c(C#N)c[nH]c(=O)c23)cs1 [Example 108, 4-(7-cyano-1-cyclopentyl-4-oxo-4,5-dihydro-1H-pyrrolo[3,2-c]pyridin-3-yl)-N-methylthiophene-2-carboxamide] |  |
| 61 | 94 | N#CCc1cccc(-c2cn(C3CCCC3)c3c(C#N)c[nH]c(=O)c23)c1 [Example 109, 3-(3-(cyanomethyl)phenyl)-1-cyclopentyl-4-oxo-4,5-dihydro-1H-pyrrolo[3,2-c]pyridine-7-carbonitrile] |  |
| 46 | 91 | N#Cc1c[nH]c(=O)c2c(-c3cccc(CC(N)=O)c3)cn(C3CCCC3)c12 [Example 110, 2-(3-(7-cyano-1-cyclopentyl-4-oxo-4,5-dihydro-1H-pyrrolo[3,2-c]pyridin-3-yl)phenyl)acetamide] |  |
| 89 | 98 | NC(=O)Cc1ccc(-c2nn(-c3c(F)cccc3F)c3c(Br)c[nH]c(=O)c23)cc1 [Example 112, 2-(4-(7-bromo-1-(2,6-difluorophenyl)-4-oxo-4,5-dihydro-1H-pyrazolo[4,3-c]pyridin-3-yl)phenyl)acetamide] |  |
| 89 | 99 | N#CCc1ccc(-c2nn(-c3c(F)cccc3F)c3c(Cl)c[nH]c(=O)c23)cc1 [Example 116, (4-(7-chloro-1-(2,6-difluorophenyl)-4-oxo-4,5-dihydro-1H-pyrazolo[4,3-c]pyridin-3-yl)phenyl)acetonitrile] |  |
| 99 | 98 | NC(=O)c1cc(-n2nc(C3CCCC3)c3cc[nH]c(=O)c32)cs1 [Example 117, 4-(3-cyclopentyl-7-oxo-6,7-dihydro-1H-pyrazolo[3,4-c]pyridin-1-yl)thiophene-2-carboxamide] |  |
